Where two headings read alike, the source gives them in different places.
Columns and labels:
[1] = biological target: N-type calcium channel (Homo sapiens, UniProt Q00975); test: N-channel FLIPR assay; type: cell-based
[2] = tested on: formalin-induced nocifensive behaviours; test: Formalin test; type: in vivo, rats; conditions: Rattus norvegicus, read-out: IPT (Formalin)
Description: The Formalin test assesses the inhibitory effects of orally administered N-type calcium channel antagonists on formalin-induced nocifensive behaviours in rats. The formalin test is a well established pain test (Dubuisson and Dennis, 1977; Wheeler-Aceto et al., 1990; Coderre et al., 1993). This test consists of two distinct phases of formalin-induced behaviour. The first phase response, occurring between 0 to 5 minutes, is caused by acute nociception to the noxious chemical (formalin) injected into the paw. This is followed by a quiescent period of between 5 to 15 min post injection. A second phase response, occurring after 15 minutes and lasting up to 60 minutes, is caused by sensitisation of the central neurons in the dorsal horn. Central sensitisation augments the noxious afferent input and a stronger pain barrage is transmitted into the brain. Inhibition of the second phase response is indicative of a central mechanism of drug action.
The procedure for the formalin test is as follows: male rats are placed in a plexiglass chamber and observed for 30-45 min. to observe their baseline activity. Multiple groups of animals are pretreated with either vehicle or different doses of a test compound. Animals are dosed with the drug of interest either 40 min., if by the intraperitoneal route, or 90 min., if by the oral route, prior to injection of formalin into a hind paw (under the dorsal skin; 0.05 mL of sterile 5% formalin). The number of paw flinches and licks during first phase (0-5 min.) and second phase (20-35 min.) are scored and recorded. Flinch and lick responses are calculated as percentage of inhibition compared with the mean score of a saline control group. Drug potencies are expressed as the dose which causes 50% of the maximum inhibitory effect (“ID50”). Student t-tests are used for statistical analysis to determine the significance of drug effects. Compounds are considered active based on their ability to inhibit the flinch response.

[3] = tested on: L-type calcium channel; test: L-channel FLIPR assay; type: cell-based, human; conditions: 5-point concentration-response curves; SK-N-SH cells
Description: An immortalized cell line, SK-N-SH, derived from human neuroblastoma cells (ATCC product # HTB-11) was used for all experiments. Cells were grown in T75 flasks containing Eagle's minimum essential medium (MEM) w/Earle's salts, with 0.1 mM non-essential amino acids, 1.0 mM Na pyruvate and 10% fetal bovine serum (FBS; Cat. # SLM-034-B, Specialty Media). Cells were grown to 100% confluency (by visual microscopic estimation) before sub-culture. Cells were sub-cultured at a ratio of 1:3 by first rinsing with 3 mL PBS, replacing the PBS with PBS containing 0.25% trypsin until the cells detached from the surface. 1 mL of the resulting suspension was then added to a new flask containing 10 mL fresh media. Cells were then incubated (37° C., 5% CO2), and media was exchanged about 3 days after subculturing.
Cells used for experiments were at the 100% confluency growth stage. Each flask provided enough cells for three 96-well plates. […]
Maximum signal (L-channel+non-specific): 12 wells received 20 μL buffer addition only (no nitrendipine) in the first solution addition sequence to define the maximal K^+-evoked Ca^2+ increase mediated by L-channels+non-specific (non-L-channel mediated fluorescence increase). The coefficient of variation amongst these wells for the K^+-evoked peak increase in fluorescence units was typically less than 12%. […]

[4] = tested on: pain; conditions: in vivo; cited from earlier work

Sequence of N-type calcium channel (Q00975 whole entry): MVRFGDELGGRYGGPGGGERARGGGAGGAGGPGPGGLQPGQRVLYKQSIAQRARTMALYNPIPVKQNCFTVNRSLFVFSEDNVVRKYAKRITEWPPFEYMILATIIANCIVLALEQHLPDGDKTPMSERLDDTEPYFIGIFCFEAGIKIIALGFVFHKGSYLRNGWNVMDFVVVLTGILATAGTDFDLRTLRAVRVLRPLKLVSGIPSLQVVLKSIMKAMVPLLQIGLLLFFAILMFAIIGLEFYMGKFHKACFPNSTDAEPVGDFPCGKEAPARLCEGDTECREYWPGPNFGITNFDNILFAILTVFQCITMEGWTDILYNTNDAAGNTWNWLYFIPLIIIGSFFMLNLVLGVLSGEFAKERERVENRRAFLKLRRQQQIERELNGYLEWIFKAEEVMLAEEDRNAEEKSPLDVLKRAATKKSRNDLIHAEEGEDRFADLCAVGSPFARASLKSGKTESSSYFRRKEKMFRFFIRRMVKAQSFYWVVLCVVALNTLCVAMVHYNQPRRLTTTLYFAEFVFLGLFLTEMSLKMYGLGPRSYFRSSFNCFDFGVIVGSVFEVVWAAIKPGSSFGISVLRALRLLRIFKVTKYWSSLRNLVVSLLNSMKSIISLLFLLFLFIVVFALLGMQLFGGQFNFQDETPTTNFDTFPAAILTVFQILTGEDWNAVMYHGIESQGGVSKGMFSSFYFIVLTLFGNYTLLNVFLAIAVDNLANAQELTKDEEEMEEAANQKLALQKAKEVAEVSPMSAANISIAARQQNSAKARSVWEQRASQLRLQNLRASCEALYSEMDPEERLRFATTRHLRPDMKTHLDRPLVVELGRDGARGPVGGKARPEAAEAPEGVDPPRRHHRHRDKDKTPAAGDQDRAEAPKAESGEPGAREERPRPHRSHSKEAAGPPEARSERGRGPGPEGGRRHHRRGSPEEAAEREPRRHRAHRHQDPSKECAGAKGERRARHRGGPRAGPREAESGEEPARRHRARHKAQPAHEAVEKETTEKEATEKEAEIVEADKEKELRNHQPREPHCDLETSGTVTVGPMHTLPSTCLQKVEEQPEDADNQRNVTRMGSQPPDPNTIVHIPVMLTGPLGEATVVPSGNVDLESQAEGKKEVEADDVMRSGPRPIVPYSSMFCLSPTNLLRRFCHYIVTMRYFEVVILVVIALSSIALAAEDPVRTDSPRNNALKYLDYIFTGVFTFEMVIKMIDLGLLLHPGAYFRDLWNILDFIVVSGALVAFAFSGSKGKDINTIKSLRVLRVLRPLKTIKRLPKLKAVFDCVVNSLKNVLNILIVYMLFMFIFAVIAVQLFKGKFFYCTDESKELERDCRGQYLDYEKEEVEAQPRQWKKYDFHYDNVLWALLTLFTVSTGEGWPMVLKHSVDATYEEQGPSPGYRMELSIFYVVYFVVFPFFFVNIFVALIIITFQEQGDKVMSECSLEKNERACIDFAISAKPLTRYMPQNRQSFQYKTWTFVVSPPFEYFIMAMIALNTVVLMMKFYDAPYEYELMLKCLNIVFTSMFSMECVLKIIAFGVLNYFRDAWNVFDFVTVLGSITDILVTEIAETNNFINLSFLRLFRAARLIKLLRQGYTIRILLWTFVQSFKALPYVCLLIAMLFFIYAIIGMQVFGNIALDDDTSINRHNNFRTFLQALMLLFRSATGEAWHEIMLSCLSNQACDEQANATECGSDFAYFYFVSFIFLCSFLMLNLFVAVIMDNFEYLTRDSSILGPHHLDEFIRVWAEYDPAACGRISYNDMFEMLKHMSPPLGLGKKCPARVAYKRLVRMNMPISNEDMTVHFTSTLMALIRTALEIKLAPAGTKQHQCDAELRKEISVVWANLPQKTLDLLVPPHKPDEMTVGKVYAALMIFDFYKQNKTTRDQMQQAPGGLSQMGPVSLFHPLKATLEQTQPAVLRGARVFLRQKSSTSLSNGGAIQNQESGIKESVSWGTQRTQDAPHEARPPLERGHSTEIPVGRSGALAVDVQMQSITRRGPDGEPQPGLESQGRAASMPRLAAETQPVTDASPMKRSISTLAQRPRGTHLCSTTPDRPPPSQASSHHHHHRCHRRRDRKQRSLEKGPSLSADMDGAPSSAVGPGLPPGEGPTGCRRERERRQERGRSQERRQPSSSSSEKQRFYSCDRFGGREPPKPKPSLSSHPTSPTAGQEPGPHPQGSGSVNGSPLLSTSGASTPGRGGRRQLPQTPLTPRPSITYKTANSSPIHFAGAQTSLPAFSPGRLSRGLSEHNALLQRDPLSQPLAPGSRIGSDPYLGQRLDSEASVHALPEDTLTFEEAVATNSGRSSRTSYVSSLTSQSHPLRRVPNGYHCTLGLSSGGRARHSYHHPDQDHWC
Sequence of N-type calcium channel (P54289 25-956 partner limits assumed): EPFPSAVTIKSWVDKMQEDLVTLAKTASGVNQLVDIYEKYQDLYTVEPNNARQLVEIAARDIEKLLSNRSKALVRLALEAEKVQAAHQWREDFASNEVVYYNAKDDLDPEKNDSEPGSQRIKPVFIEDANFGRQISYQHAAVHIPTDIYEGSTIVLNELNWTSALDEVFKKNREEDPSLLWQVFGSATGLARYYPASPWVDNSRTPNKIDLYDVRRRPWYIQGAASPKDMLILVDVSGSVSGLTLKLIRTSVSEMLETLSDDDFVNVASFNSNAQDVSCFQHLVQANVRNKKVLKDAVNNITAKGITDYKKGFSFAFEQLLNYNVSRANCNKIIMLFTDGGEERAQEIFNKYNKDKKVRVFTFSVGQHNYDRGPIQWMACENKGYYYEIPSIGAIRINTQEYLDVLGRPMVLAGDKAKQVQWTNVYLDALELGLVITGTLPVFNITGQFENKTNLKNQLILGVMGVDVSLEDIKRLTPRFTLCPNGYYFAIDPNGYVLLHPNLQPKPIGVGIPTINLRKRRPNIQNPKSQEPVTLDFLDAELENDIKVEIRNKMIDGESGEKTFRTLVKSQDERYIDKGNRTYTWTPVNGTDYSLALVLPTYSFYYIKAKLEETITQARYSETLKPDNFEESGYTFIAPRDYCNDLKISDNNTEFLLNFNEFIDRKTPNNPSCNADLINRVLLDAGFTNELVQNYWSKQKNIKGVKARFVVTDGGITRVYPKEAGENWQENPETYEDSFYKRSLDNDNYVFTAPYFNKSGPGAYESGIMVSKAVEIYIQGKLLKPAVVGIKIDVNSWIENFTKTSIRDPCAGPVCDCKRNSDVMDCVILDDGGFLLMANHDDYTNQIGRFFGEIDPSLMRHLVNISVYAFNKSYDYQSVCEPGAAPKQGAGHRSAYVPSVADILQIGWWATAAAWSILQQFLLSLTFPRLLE
Sequence of N-type calcium channel (P54289 957-1103 partner limits assumed): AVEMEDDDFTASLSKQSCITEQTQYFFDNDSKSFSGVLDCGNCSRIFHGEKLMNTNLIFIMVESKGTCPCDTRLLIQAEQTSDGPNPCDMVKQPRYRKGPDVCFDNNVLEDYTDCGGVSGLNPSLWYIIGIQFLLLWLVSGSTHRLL
Sequence of N-type calcium channel (Q02641 whole entry partner): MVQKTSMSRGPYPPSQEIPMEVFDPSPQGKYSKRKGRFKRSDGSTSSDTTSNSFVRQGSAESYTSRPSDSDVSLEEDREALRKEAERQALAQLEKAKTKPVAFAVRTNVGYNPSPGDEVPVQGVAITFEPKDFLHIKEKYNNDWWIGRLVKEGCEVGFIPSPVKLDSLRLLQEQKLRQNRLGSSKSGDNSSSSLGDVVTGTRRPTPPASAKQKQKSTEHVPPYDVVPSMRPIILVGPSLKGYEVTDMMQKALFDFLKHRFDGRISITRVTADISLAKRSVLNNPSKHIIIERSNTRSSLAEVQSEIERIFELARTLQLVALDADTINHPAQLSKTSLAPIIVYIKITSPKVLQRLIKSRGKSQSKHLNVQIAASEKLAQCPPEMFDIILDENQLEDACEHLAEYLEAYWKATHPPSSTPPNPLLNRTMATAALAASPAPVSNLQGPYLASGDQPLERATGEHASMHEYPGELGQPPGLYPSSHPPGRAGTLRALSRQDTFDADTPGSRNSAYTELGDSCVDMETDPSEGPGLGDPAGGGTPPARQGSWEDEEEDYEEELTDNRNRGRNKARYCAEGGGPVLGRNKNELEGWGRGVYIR

COc1ccc(-c2cc(C(=O)O)c3ccccc3n2)cc1 [Example 1, 2-(4-methoxyphenyl)-4-quinolinecarboxylic acid]
IC50 [1]: > 10 µM

O=C(O)c1cc(-c2ccc(Cl)cc2)nc2ccccc12 [Example 2, 2-(4-chlorophenyl)-4-quinolinecarboxylic acid]
IC50 [1]: > 10 µM

Nc1ccc2nc(-c3ccccc3)cc(N)c2c1 [Example 3, 2-phenyl-4,6-quinolinediamine]
IC50 [1]: 3.5 µM
inhibition in vivo at 30 mg/kg ([2]; ip, 30 mg/kg, i.p., rats): 45%
inhibition in vivo at 30 mg/kg ([2]; po, 30 mg/kg, p.o., rats): 28%

COc1cccc2c(C(=O)O)cc(-c3ccccc3)nc12 [Example 4, 8-methoxy-2-phenyl-4-quinolinecarboxylic acid]
IC50 [1]: > 10 µM

COc1ccc(-c2cc(N)c3ccccc3n2)cc1 [Example 5, 2-(4-methoxyphenyl)-4-quinolinamine]
IC50 [1]: 4.8 µM

Nc1cc(-c2ccccc2)nc2ccccc12 [Example 6, 2-phenyl-4-quinolinamine]
IC50 [1]: 4.4 µM
inhibition in vivo at 30 mg/kg ([2]; ip, 30 mg/kg, i.p., rats): 88%

Cc1ccc(-c2cc(C(=O)O)c3ccccc3n2)cc1 [Example 7, 2-(4-methylphenyl)-4-quinolinecarboxylic acid]
IC50 [1]: > 10 µM

O=C(O)c1cc(-c2ccc(F)cc2)nc2ccccc12 [Example 8, 2-(4-fluorophenyl)-4-quinolinecarboxylic acid]
IC50 [1]: > 10 µM

Nc1cc(-c2cccc(F)c2)nc2ccccc12 [Example 9, 2-(3-fluorophenyl)-4-quinolinamine]
IC50 [1]: 2.1 µM
inhibition in vivo at 30 mg/kg ([2]; ip, 30 mg/kg, i.p., rats): 90%
inhibition in vivo at 30 mg/kg ([2]; po, 30 mg/kg, p.o., rats): 41%

CNc1cc(-c2cccc(F)c2)nc2ccccc12 [Example 10, 2-(3-fluorophenyl)-N-methyl-4-quinolinamine]
IC50 [1]: 1.6 µM
inhibition in vivo at 30 mg/kg ([2]; ip, 30 mg/kg, i.p., rats): 77%
inhibition in vivo at 30 mg/kg ([2]; po, 30 mg/kg, p.o., rats): 46%

CN(C)c1cc(-c2cccc(F)c2)nc2ccccc12 [Example 11, 2-(3-fluorophenyl)-N,N-dimethyl-4-quinolinamine]
IC50 [1]: 3 µM
inhibition in vivo at 30 mg/kg ([2]; ip, 30 mg/kg, i.p., rats): 64%

CC(=O)Nc1cc(/C=C/c2ccccc2)nc2ccccc12 [Example 12, N-{2-[(E)-2-phenylethenyl]-4-quinolinyl}acetamide]
IC50 [1]: 5 µM

Nc1cc(/C=C/c2ccccc2)nc2ccccc12 [Example 13, 2-[(E)-2-phenylethenyl]-4-quinolinamine]
IC50 [1]: 1.4 µM

Nc1cc(-c2cccs2)nc2ccccc12 [Example 14, 2-(2-thienyl)-4-quinolinamine]
IC50 [1]: 5.4 µM
inhibition in vivo at 30 mg/kg ([2]; ip, 30 mg/kg, i.p., rats): 25%

Cc1c(-c2ccccc2)nc2ccccc2c1C(=O)O [Example 15, 3-methyl-2-phenyl-4-quinolinecarboxylic acid]
IC50 [1]: > 10 µM

Cc1c(-c2ccccc2)nc2ccccc2c1N [Example 16, 3-methyl-2-phenyl-4-quinolinamine]
IC50 [1]: 3.6 µM
inhibition in vivo at 30 mg/kg ([2]; ip): 91%
inhibition in vivo at 30 mg/kg ([2]; po): 11%

CC(=O)Nc1cc(/C=C/c2cccc(F)c2)nc2ccccc12 [Example 17, N-{2-[(E)-2-(3-fluorophenyl)ethenyl]-4-quinolinyl}acetamide]
IC50 [1]: 6.4 µM

Nc1cc(/C=C/c2cccc(F)c2)nc2ccccc12 [Example 18, 2-[(E)-2-(3-fluorophenyl)ethenyl]-4-quinolinamine]
IC50 [1]: 4.3 µM
inhibition in vivo at 30 mg/kg ([2]; ip, 30 mg/kg, i.p., rats): 19%

Cc1cc(C)c2c(N)cc(-c3ccccc3)nc2c1 [Example 19, 5,7-dimethyl-2-phenyl-4-quinolinamine]
IC50 [1]: 1.5 µM

Cc1cccc2c(N)cc(-c3ccccc3)nc12 [Example 20, 8-methyl-2-phenyl-4-quinolinamine]
IC50 [1]: 3.1 µM

COc1ccc2nc(-c3ccccc3)cc(C(=O)O)c2c1 [Example 21, 6-methoxy-2-phenyl-4-quinolinecarboxylic acid]
IC50 [1]: > 10 µM

COc1ccc2nc(-c3ccccc3)cc(N)c2c1 [Example 22, 6-methoxy-2-phenyl-4-quinolinamine]
IC50 [1]: ~3 µM
inhibition in vivo at 30 mg/kg ([2]; ip, 30 mg/kg, i.p., rats): 16%

CCc1c(-c2ccccc2)nc2ccccc2c1C(=O)O [Example 23, 3-ethyl-2-phenyl-4-quinolinecarboxylic acid]
IC50 [1]: > 10 µM

Nc1ccc2nc(/C=C/c3ccccc3)cc(N)c2c1 [Example 24, 2-[(E)-2-phenylethenyl]-4,6-quinolinediamine]
IC50 [1]: 5.4 µM

Nc1ccc2nc(/C=C/c3cccc(F)c3)cc(N)c2c1 [Example 25, 2-[(E)-2-(3-fluorophenyl)ethenyl]-4,6-quinolinediamine]
IC50 [1]: 3.8 µM

COc1cccc2c(N)cc(-c3ccccc3)nc12 [Example 26, 8-methoxy-2-phenyl-4-quinolinamine]
IC50 [1]: 5 µM

Nc1c2c(nc3ccccc13)-c1ccccc1CC2 [Example 27, 5,6-dihydrobenzo[c]acridin-7-amine]
IC50 [1]: 1.1 µM
inhibition in vivo at 30 mg/kg ([2]; ip, 30 mg/kg, i.p., rats): 50%

O=C(O)c1cc(-c2ccccc2F)nc2ccccc12 [Example 28, 2-(2-fluorophenyl)-4-quinolinecarboxylic acid]
IC50 [1]: > 10 µM

CCc1c(-c2ccccc2)nc2ccccc2c1N [Example 29, 3-ethyl-2-phenyl-4-quinolinamine]
IC50 [1]: 1.2 µM

Nc1cc(-c2ccc(F)cc2)nc2ccccc12 [Example 30, 2-(4-fluorophenyl)-4-quinolinamine]
IC50 [1]: 3.4 µM

Nc1cc(-c2ccccc2F)nc2ccccc12 [Example 31, 2-(2-fluorophenyl)-4-quinolinamine]
IC50 [1]: 8 µM

Cc1ccc(-c2cc(N)c3ccccc3n2)cc1 [Example 32, 2-(4-methylphenyl)-4-quinolinamine]
IC50 [1]: 3.1 µM

Cc1cccc(-c2cc(C(=O)O)c3ccccc3n2)c1 [Example 33, 2-(3-methylphenyl)-4-quinolinecarboxylic acid]
IC50 [1]: > 10 µM

Nc1c2c(nc3ccccc13)-c1ccccc1CCC2 [Example 34, 6,7-dihydro-5H-benzo[6,7]cyclohepta[1,2-b]quinolin-8-amine]
IC50 [1]: 0.9 µM

CC(C)(C)c1cc(N)c2ccccc2n1 [Example 35, 2-tert-butyl-4-quinolinamine]
IC50 [1]: > 10 µM

Nc1cc(-c2ccc(Cl)cc2)nc2ccccc12 [Example 36, 2-(4-chlorophenyl)-4-quinolinamine]
IC50 [1]: 5.5 µM

Cc1cccc(-c2cc(N)c3ccccc3n2)c1 [Example 37, 2-(3-methylphenyl)-4-quinolinamine]
IC50 [1]: 1.2 µM
inhibition in vivo at 30 mg/kg ([2]; ip, 30 mg/kg, i.p., rats): 47%
inhibition in vivo at 30 mg/kg ([2]; po, 30 mg/kg, p.o., rats): 13%

CCOC(=O)C1=C(C)NC(C)=C(C(=O)OC)C1c1cccc([N+](=O)[O-])c1 (stereo not shown) [nitrendipine]
IC50 [3]: 0.03 µM

conotoxin MVIIA
success rate for the treatment of pain [4]: ~85%

Reference: patent US6906193B2, “N-type calcium channel antagonists for the treatment of pain” (AstraZeneca AB, priority 2000, dated 2005)
